From patent US5061729A, “Pharmaceutical composition and process for preparing the same” (priority 1988, dated 1991)
Like-named read-outs stand apart in the source and are kept apart here.

Key:
[1] = mucolytic (viscosity-reducing) effect of sulfhydryl compounds; details: comparison of compounds containing a sulfhydryl group
[2] = system: pathogenic micro-organisms occurring in the discharges of patients suffering from chronic otitis; assay: treatment of the ear discharges by antibacterial agents (sensitivity, Table 2); type: cell-based; details: for A = therapeutically active (sensitive) / M = moderately active / R = inactive (resistant): number of cases of 510 examinations; for Act. = activity %: share of active cases, 510 examinations
Protocol: In the Department for Otorhinolaryngology of the Medical University of Debrecen, adult and child patients were examined to identify the types of pathogenic micro-organisms occurring in the discharges of patients suffering from chronic otitis (otitis media chronica); the discharges of 510 patients were analyzed for the bacterial infection.
Symbols used in Table 2:
0 = number of the cases not examined
A = therapeutically active (sensitive)

[3] = cited from earlier work
[4] = dogs; oral administration; cited from earlier work
[5] = single-component treatment: aqueous solutions of sulfhydryl compounds; type: in vivo, patients; details: acetylcysteine solution
[6] = system: several gram-positive and gram-negative bacteria such as Pseudomonas aeruginosa; details: in vitro conditions; M. F. Parry et al.; cited from earlier work
[7] = rats; oral administration; cited from earlier work
[8] = mice; oral administration; cited from earlier work
[9] = single-component treatment: 1% tobramycin solution in external otitis; type: in vivo, patients; details: 1% solution
Excerpt: (§1) Several compositions according to the invention were also studied with omitting one active ingredient of the composition in order to support the progressive character of the multi-active-component type composition according to the invention. These experiments led to the following results.

[10] = single-component treatment: 1% tobramycin solution in chronic mesotympanic otitis; type: in vivo, patients; details: 1% solution
Excerpt: as §1

[11] = with sulfhydryl-containing compounds, particularly acetylcysteine

Compound | A = therapeutically active (sensitive) [2] | M = moderately active [2] | R = inactive (resistant) [2] | Act. = activity % [2] [%] | also measured
O=C(O)C(S)C(S)C(=O)O (stereo not shown) [dimercaptosuccinate] |  |  |  |  | mucolytic effect [1]: mucolytic effect can also be shown
O[C@H](CS)[C@@H](O)CS [dithioerythritol] |  |  |  |  | mucolytic effect [1]: mucolytic effect can also be shown
Polymyxin B | 69 | 8 | 103 | 42.7 | 
O=C(N[C@H](CO)[C@H](O)c1ccc([N+](=O)[O-])cc1)C(Cl)Cl [Chloramphenicol] | 106 | 11 | 197 | 37.2 | 
C[C@H]1c2cccc(O)c2C(O)=C2C(=O)[C@]3(O)C(O)=C(C(N)=O)C(=O)[C@@H](N(C)C)[C@@H]3[C@@H](O)[C@@H]21 [doxycyclin] |  |  |  |  | influence of sulfhydryl-containing compounds on absorption from the stomach [3, 11]: not disadvantageously influenced by the sulfhydryl-containing compounds
CC[C@H]1OC(=O)[C@H](C)[C@@H](O[C@H]2C[C@@](C)(OC)[C@@H](O)[C@H](C)O2)[C@H](C)[C@@H](O[C@@H]2O[C@H](C)C[C@H](N(C)C)[C@H]2O)[C@](C)(O)C[C@@H](C)C(=O)[C@H](C)[C@@H](O)[C@]1(C)O [Erythromycin] | 113 | 6 | 208 | 36.4 | influence of sulfhydryl-containing compounds on absorption from the stomach ([3]; in vivo): not disadvantageously influenced by the sulfhydryl-containing compounds
CO[C@H]1C[C@H](O[C@H]2[C@H](C)[C@@H](O[C@@H]3O[C@H](C)C[C@H](N(C)C)[C@H]3O)[C@@H](C)C[C@@]3(CO3)C(=O)[C@H](C)[C@@H](O)[C@@H](C)[C@@H](C)OC(=O)[C@@H]2C)O[C@@H](C)[C@@H]1O [Oleandomycin] | 114 | 4 | 179 | 39.7 | 
CN(C)[C@@H]1C(=O)C(C(N)=O)=C(O)[C@@]2(O)C(=O)C3=C(O)c4c(O)cccc4[C@@](C)(O)[C@H]3C[C@@H]12 [Tetracyclin] | 79 | 16 | 279 | 25.4 | 
O=C(Cc1cccs1)N[C@@H]1C(=O)N2C(C(=O)[O-])=C(C[n+]3ccccc3)CS[C@H]12 [Cephaloridin] | 170 | 27 | 182 | 51.9 | 
CC(=O)N[C@@H](CS)C(=O)O [N-acetyl-L-cysteine] |  |  |  |  | LD50 [4]: 1000 mg/kg of body-weight; character of the discharge under treatment [5]: rather took the form of a precipitate; synergistic effect with several antibiotics [6]: shows a synergistic effect with several antibiotics; LD50 [7]: 6000 mg/kg of body-weight; mucolytic effect [1]: most useful mucolytic agent; LD50 [8]: 3000 mg/kg of body-weight
Cc1onc(-c2ccccc2)c1C(=O)N[C@@H]1C(=O)N2[C@@H]1SC(C)(C)[C@@H]2C(=O)O [Oxacillin] | 191 | 13 | 77 | 72.6 | 
Gentamycin | 65 | 72 | 118 | 53.7 | 
N[C@@H](CCC(=O)N[C@@H](CS)C(=O)NCC(=O)O)C(=O)O [glutathione] |  |  |  |  | mucolytic effect [1]: mucolytic effect can also be shown
[H]/N=C(/N)N[C@H]1[C@H](O)[C@@H](O)[C@H](O[C@@H]2O[C@@H](C)[C@](O)(C=O)[C@H]2O[C@@H]2O[C@@H](CO)[C@H](O)[C@@H](O)[C@@H]2NC)[C@@H](N/C(N)=N\[H])[C@@H]1O [Streptomycin] | 39 | 42 | 87 | 48.2 | 
CC1(C)S[C@@H]2[C@H](NC(=O)[C@H](N)c3ccc(O)cc3)C(=O)N2[C@H]1C(=O)O [amoxicillin] |  |  |  |  | influence of sulfhydryl-containing compounds on absorption from the stomach [3, 11]: not disadvantageously influenced by the sulfhydryl-containing compounds
CC(C)(CO)[C@@H](O)C(=O)NCCC(=O)NCCS [pantetheine] |  |  |  |  | mucolytic effect [1]: mucolytic effect can also be shown
CC1(C)S[C@@H]2[C@H](NC(=O)Cc3ccccc3)C(=O)N2[C@H]1C(=O)O [Penicillin] | 67 | 22 | 218 | 29.4 | 
NC[C@H]1O[C@H](O[C@H]2[C@H](O)[C@@H](O[C@H]3O[C@H](CO)[C@@H](O)[C@H](N)[C@H]3O)[C@H](N)C[C@@H]2N)[C@H](N)C[C@@H]1O [Tobramycin, tobramycin] | 116 | 86 | 61 | 79.2 | substantial improvement, % of patients [9]: ≤ 40%; influence of sulfhydryl-containing compounds on absorption from the stomach ([3]; in vivo): not disadvantageously influenced by the sulfhydryl-containing compounds; substantial improvement of the pathological processes, % of patients [10]: about 60%
COc1cccc(OC)c1C(=O)N[C@@H]1C(=O)N2[C@@H]1SC(C)(C)[C@@H]2C(=O)O [Meticillin] | 146 | 27 | 95 | 64.6 | 
neomycin | 27 | 13 | 5 | 88.9 | influence of sulfhydryl-containing compounds on absorption from the stomach ([3]; in vivo): not disadvantageously influenced by the sulfhydryl-containing compounds
CC1(C)S[C@@H]2[C@H](NC(=O)C(C(=O)O)c3ccccc3)C(=O)N2[C@H]1C(=O)O (stereo partly shown) [Carbenicillin] | 137 | 22 | 91 | 63.6 | 
N[C@@H](CSCC(=O)O)C(=O)O [carbocysteine] |  |  |  |  | mucolytic effect [1]: mucolytic effect can also be shown
CCN(CC)C(=S)SSC(=S)N(CC)CC [disulfiram] |  |  |  |  | mucolytic effect [1]: mucolytic effect can also be shown
CC1(C)S[C@@H]2[C@H](NC(=O)[C@H](N)c3ccccc3)C(=O)N2[C@H]1C(=O)O [Ampicillin] | 72 | 11 | 120 | 40.8 | 
